Each structure is given as a SMILES string.

Type in all cases: in vivo
Assay [1] relates to 5/6 remnant kidney 129X1/SvJ mice. In words: 5/6 Remnant Kidney Model (Example 1). Conditions: 5/6 nephrectomized mice. The text has this: (§1) The remnant kidney and the adryamicin drug-induced models are commonly used rodent models for FSGS (de Mik S M. Et al. Pathophysiology and treatment of focal segmental glomerulosclerosis: the role of animal models. BMC Nephrol. 2013 Apr. 1; 14:74). The 5/6 remnant kidney model is representative of secondary FSGS whereas the Adriamycin nephropathy model is representative of primary FSGS.
The 5/6 remnant kidney 129X1/SvJ mice was obtained from Jackson Laboratories. The mice were kept on standard chow and had free access to water. The mice surgery was performed in two stages. Under isoflurane anesthesia, two-thirds of the left kidney mass was dissected. After 7 to 10 days, a right unilateral nephrectomy was performed. Six weeks after the 5/6 nephrectomy, the mice were randomized for the study. Compound 3 and its vehicle were dosed subcutaneously once daily at 100 mg/kg formulated in 1% HPMC. 6 animals were used for each group.
Urine samples were collected at weeks one and two by individually housing the mice in metabolic cages for 18 hours. Urinary albumin was measured by ELISA (Bethyl Labs, Montgomery, TX), and the urinary albumin excretion rate (UAER) was calculated as micrograms per 24 hours. Urinary creatinine was measured by mass spectrometry. The albumin to creatinine ratio (ACR) was calculated as micrograms of albumin per milligram of creatinine. At the end of the experiments (after 2 weeks of treatment), the kidneys were collected, fixed in formalin, embedded in paraffin, and cut into 3-μm-thick sections. Sections were stained for podocytes by immunohistochemistry with Wilms tumor protein 1 antibody (Abcam, Cambridge, MA). Glomerular cross-sectional area and podocyte number were determined in 20-30 glomeruli per mouse. Glomerulus volume and podocyte density were calculated from the immunohistochemistry data using the Weibel method. Mesangial expansion was measured by silver methenamine stain on 2-μm-thick paraffin sections by conventional methods.

The test system is the same in assay [2]. The experiment in a line: 5/6 Remnant Kidney Model with Combination Treatment (Example 3). The following applies: 5/6 nephrectomized mice, compound 3 100 mg/kg subcutaneously once daily, candesartan 5 mg/kg orally once daily.
Description: as §1
The 5/6 remnant kidney 129X1/SvJ mice was obtained from Jackson Laboratories. The mice were kept on standard chow and had free access to water. The mice surgery was performed in two stages. Under isoflurane anesthesia, two-thirds of the left kidney mass was dissected. After seven to ten days, a right unilateral nephrectomy was performed. Three to six weeks after the 5/6 nephrectomy, the mice were randomized for the study (n=12 per group). Compound 3 and its vehicle were dosed subcutaneously once daily at 100 mg/kg formulated in 1% HPMC. […]
Urine samples were collected at week one, two and three by individually housing the mice in metabolic cages for 18 hours. Urinary albumin was measured by ELISA (Bethyl Labs, Montgomery, TX), and the urinary albumin excretion rate (UAER) was calculated as micrograms per 24 hours. Urinary creatinine was measured by mass spectrometry. The albumin to creatinine ratio (ACR) was calculated as micrograms of albumin per milligram of creatinine.

In assay [3] the test system is Adriamycin nephropathy female Balb/c mice. In words: Adriamycin Nephropathy Model (Example 2). The following applies: Adriamycin 7.5 mg/kg i.v. day 0; compound 1 90 mg/kg subcutaneously once daily; candesartan orally once daily; week 1, 2 and 3; vs vehicles. As to the method: as §1
The experiment was performed in female Balb/c mice (Jackson Laboratories). The mice were kept on standard chow and had free access to water. 7.5 mg/kg Adriamycin (Selleck Chemicals) or saline (control) was injected in a tail vein in isoflurane-anesthetized animals at day 0. Compound 1 and its vehicle (1% HPMC) were dosed subcutaneously once daily at 90 mg/kg formulated in 1% HPMC. Candesartan and its vehicle (H2O) were dosed orally once daily. Twelve animals were used for each group.
[…] Urinary albumin was measured by ELISA (Bethyl Labs, Montgomery, TX), and the urinary albumin excretion rate (UAER) was calculated as micrograms per 24 hours. Urinary creatinine was measured by mass spectrometry. The albumin to creatinine ratio (ACR) was calculated as micrograms of albumin per milligram of creatinine.

The mark [4] stands for this setting: 100 mg/kg subcutaneously once daily, kidneys after 2 weeks of treatment.

With `O=C(c1ncc(Cl)cc1NS(=O)(=O)c1ccc(Cl)c(C(F)(F)F)c1)c1ccnc2[nH]ccc12` [compound 3], the “proteinuria (UACR values, FIG. 1)” value in assay [1] (100 mg/kg subcutaneously once daily in 1% HPMC, week 1 and 2, vs vehicle) is recorded as “reduces the profound proteinuria”. Besides, in assay [1] (setting [4]), the “number of renal interstitial macrophages (macrophage content as percentage of total area, FIG. 2)” value is “reduces the number of renal interstitial macrophages”; the “percentage of glomeruli with mesangiolysis (FIG. 6)” value was “beneficial effect”; the “podocytes numbers per glomerular cross section (FIG. 4)” value was “increased podocytes numbers”. Besides, in assay [2] (week 1 and week 2), the “UACR values (FIG. 11)” value is “reduction in UACR values”. Besides, the “UAER values (FIG. 10)” value in assay [2] (weeks 1, 2 and 3) was “reduction in UAER values”.

Take `Cc1cnc(C(=O)c2ccnc3[nH]ccc23)c(NS(=O)(=O)c2ccc(Cl)c(C(F)(F)F)c2)c1` [compound 1]: in assay [3], the “UACR levels (FIG. 8)” value was “reduction in UACR levels”.

The values are drawn from US12194032B2, “Method of treating focal segmental glomerulosclerosis” (ChemoCentryx, Inc., priority 2016, dated 2025).
